US11155576B2, “Synthetic peptides, enzymatic formation of pericellular hydrogels/nanofibrils, and methods of use” (BRANDEIS UNIVERSITY, priority 2014, dated 2021)

Assays:
Type in all cases: cell-based, human
Ect1/E6E7 cells = experiment: Pericellular hydrogelation on Ect1/E6E7 cells; details: 560 μM, prolonged incubation time of 48 hours
Description: (§1) An 11.2 mM (8.09 mg/mL) stock solution of D-2a was prepared in ddH2O. The pH was adjusted to 7.4 using 1N NaOH. 2×10^5 cells in exponential growth phase were seeded in 35 mm Petri dish with 1 mL complete culture medium. Following overnight incubation, the medium was replaced with 1 mL of medium containing D-2a (diluted from the stock solution immediately prior to use). Petri dishes were incubated at 37° C. for two hours. Next, dishes were removed from the incubator and titled on a bench to visualize the pericellular hydrogel. Prior to co-incubation with phosphatase inhibitors, cells were washed three times with medium containing Pierce phosphatase inhibitor cocktail (Thermo) (contains sodium floride, sodium orthovanadate, sodium pyrophosphate, and beta-glycerophosphate). Next, 1 mL of medium containing both the inhibitor cocktail and D-2a was applied to the cells.
Ect1/E6E7 cells (immortalized normal human cervical epithelial cells, which have same tissue and organ origins as HeLa cells) were treated with the same procedure as described for HeLa cells above. […] The difference of hydrogel/nanonets formation by D-2a conversion to D-2b on HeLa cells and Ect1/E6E7 cells agrees with the notion that HeLa cells have higher levels of phosphatase activity than Ect1/E6E7 cells (FIG. 9).

HeLa cells [1] = experiment: Pericellular hydrogelation on HeLa cells (optical images)
Description: as §1

HeLa cells [2] = experiment: Viability of cells after cold shock and nanonet collection; details: 4 hour incubation with D-2a in FBS-free MEM, cold shock and medium removal
Description: FIGS. 33A-33B show the cell compatibility of the use of nanonets/hydrogel for collecting cancer secretome. FIG. 33A is a Western blot showing the amount of tubulins in CM collected after 24 hours of incubation or pericellular nanonets collected after 3 to 9 hours of incubation. […] Both CM and nanonets were collected in FBS-free MEM. […] Two trials, each has three repeats.
In another experiment the viability of cells following nanonet collection was evaluated following 4 hour incubation with D-2a and cold shock.

With `O=C(Cc1ccc2ccccc2c1)N[C@H](Cc1ccccc1)C(=O)N[C@H](Cc1ccccc1)C(=O)N[C@H](Cc1ccc(OP(=O)(O)O)cc1)C(=O)O` [D-2a, Nap-D-Phe-D-Phe-D-Tyr(PO3H2)] the “Hydrogel formation on Ect1/E6E7 cells” value (Ect1/E6E7 cells) was “hydrogels hardly form”, the “Pericellular hydrogel formation on HeLa cells” value (shortened to “Pericellular hydrogel formation”) (HeLa cells [1]; 140 μM, 2 hours at 37° C.) was “Little hydrogelation” and the “Pericellular hydrogel formation” value (HeLa cells [1]; 280 μM, 2 hours at 37° C.) was “formation of a hydrogel-like soft material (hydrogel) on the cell surface”. The “Pericellular hydrogel formation” value (HeLa cells [1]; 560 μM D-2a in the presence of ALP (0.1 U/mL), 2 hours) was “hardly any pericellular hydrogelation”, the “Pericellular hydrogel formation” value (HeLa cells [1]; 560 μM D-2a with phosphatase inhibitors (Pierce), 2 hours) was “prevent formation of the pericellular hydrogel” and the “Pericellular hydrogel formation” value (HeLa cells [1]; 560 μM, 2 hours at 37° C.) was “formation of a hydrogel-like soft material (hydrogel) on the cell surface”. For the same compound, the “Cell viability after nanonet collection” value (HeLa cells [2]) was “hardly affected cell viability”.
